The source made the active and inactive calls.
Columns and labels:
[1] = NIH3T3 cell viability loss – ATP luminescence, mouse fibroblasts, counter-screen, dose response (AID 2010); assay type: functional, cell-based;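 also: cells exposed to compound for about 90 hours before reading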
Vero = assay: inhibition of WNV-induced cytopathic effect – cell-based, CPE readout (AID 1621); assay type: functional; conditions: Chlorocebus sabaeus
[2] = Trypanosoma cruzi growth suppression in host cells – NIH3T3 host cells, beta-gal luminescence, confirmation (AID 2044); assay type: functional, cell-based;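 also: intracellular parasites grown in NIH/3T3 mouse fibroblasts as host cells; luminescent beta-galactosidase reporter signal from transgenic T. cruzi replicating inside host cells; inhibitors lower the luminescence signal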
[3] = molecular target: Peroxisome proliferator-activated receptor gamma/Nuclear receptor corepressor 2 (Homo sapiens, UniProt P37231+Q9Y618); assay: Counterscreen for NR2E3 inverse agonists: TR-FRET-based biochemical high throughput dose response assay to identify inverse agonists of the interaction between peroxisome proliferator-activated receptor gamma (PPARg) and nuclear receptor co-repressor 2 (NCOR2).; assay type: functional
[4] = molecular target: Photoreceptor-specific nuclear receptor (Homo sapiens, UniProt Q9Y5X4); assay: ligands suppressing NR2E3 nuclear receptor activity – biochemical, TR-FRET, dose response (AID 463256); assay type: functional
[5] = toxicity toward HepG2 liver cells – cell-based, plate reader, cherry-pick, antagonist series, cytotoxicity control, dose response (AID 743416); assay type: functional
[6] = viability loss in HEK293 cells – cell-based, plate reader, cherry-picked samples, cytotoxicity control, dose response (AID 743446); assay type: functional
[7] = blockers of bursicon-stimulated LGR2 cAMP reporter – cell-based, HEK293, CRE-luciferase reporter, cherry pick, set 2, dose response (AID 743343); assay type: functional;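 also: transfected cells were stimulated with diluted bursicon conditioned medium after compound addition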
[8] = blockade of melanocortin 4 receptor signaling – cell-based, plate reader, cherry pick, counter-screen for LGR2 antagonist project, dose response (AID 743444); assay type: functional;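 also: transfected HEK 293 cells stimulated with alpha-MSH peptide; potency of inhibitors of the alpha-MSH evoked signal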
[9] = molecular target: Heat shock protein HSP 90-alpha (Homo sapiens, UniProt P07900); assay type: functional, organism-based
[10] = molecular target: T1, Sphingosine 1-phosphate receptor 4 (Homo sapiens, UniProt O95977); assay: Late stage fluorescence dose response cell-based screening assay for antagonists of the Sphingosine 1-Phosphate Receptor 4 (S1P4). [Related pubchem assays: 1524 (Confirmation screen (S1P4 antagonists).), 1510 (Primary screen (S1P4 antagonists).), 1853 (Summary AID (S1P4 antagonists).), 1692 (Dose response screen (S1P4 antagonists).)]; assay type: functional
T1 sequence (O95977 whole entry): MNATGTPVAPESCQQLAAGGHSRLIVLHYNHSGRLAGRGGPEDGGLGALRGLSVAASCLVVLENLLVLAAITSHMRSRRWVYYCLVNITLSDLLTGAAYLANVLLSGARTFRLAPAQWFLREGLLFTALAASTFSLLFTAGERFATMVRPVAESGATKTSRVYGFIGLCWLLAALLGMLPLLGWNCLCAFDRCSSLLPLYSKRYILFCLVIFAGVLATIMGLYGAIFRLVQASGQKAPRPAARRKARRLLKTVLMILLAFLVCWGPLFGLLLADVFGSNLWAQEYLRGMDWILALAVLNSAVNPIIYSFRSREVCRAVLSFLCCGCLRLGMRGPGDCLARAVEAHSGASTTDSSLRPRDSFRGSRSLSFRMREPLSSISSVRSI

[11] = molecular target: Sphingosine 1-phosphate receptor 1 (Homo sapiens, UniProt P21453); assay type: functional;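 also: Tango beta-arrestin reporter U2OS cells stimulated with S1P near its EC80; inhibitor potency meaning antagonism of receptor activation by the natural agonist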
[12] = Luminescent dose response cell-based high throughput screening assay for inhibitors of the Janus kinase 2 mutant JAK2V617F. [Related pubchem assays: 1446 (Primary screen.), 1521 (Confirmation assay.), 1486 (Counter screen.)]; assay type: functional
[13] = A549 cell cytotoxicity, dose response, cytotoxicity control, plate reader, cherry-pick, antagonist series (AID 743412); assay type: functional, cell-based
[14] = molecular target: T2, High affinity choline transporter 1 (Homo sapiens, UniProt Q9GZV3); assay: human choline transporter blockers, potency – cell-based, 5-point CRC, membrane potential dye, dose response (AID 504840); assay type: functional
T2 sequence (Q9GZV3 whole entry): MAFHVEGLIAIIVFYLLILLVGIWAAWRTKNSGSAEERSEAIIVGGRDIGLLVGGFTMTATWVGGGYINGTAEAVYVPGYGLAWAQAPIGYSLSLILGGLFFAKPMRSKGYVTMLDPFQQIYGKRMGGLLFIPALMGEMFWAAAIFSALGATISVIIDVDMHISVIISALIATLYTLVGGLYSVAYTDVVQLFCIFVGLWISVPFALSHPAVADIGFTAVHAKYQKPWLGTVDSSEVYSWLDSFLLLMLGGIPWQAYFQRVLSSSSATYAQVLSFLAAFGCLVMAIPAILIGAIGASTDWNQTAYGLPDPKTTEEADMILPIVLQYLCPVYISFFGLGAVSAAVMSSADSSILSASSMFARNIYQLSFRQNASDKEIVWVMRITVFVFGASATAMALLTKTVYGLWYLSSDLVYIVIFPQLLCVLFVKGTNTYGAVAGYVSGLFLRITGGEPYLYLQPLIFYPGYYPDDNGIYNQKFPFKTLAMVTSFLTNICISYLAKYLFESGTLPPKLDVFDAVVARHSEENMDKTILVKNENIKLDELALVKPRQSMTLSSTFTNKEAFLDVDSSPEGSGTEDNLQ

[15] = THP-1 cell cytotoxicity, dose response, cytotoxicity control for non-replicating M. tuberculosis project (AID 489025); assay type: functional
[16] = molecular target: T1, Sphingosine 1-phosphate receptor 4; assay: Fluorescence dose response cell-based high throughput screening assay for antagonists of the Sphingosine 1-Phosphate Receptor 4 (S1P4). [Related pubchem assays: 1524 (Confirmation in triplicates.), 1510 (Primary screen.)]; assay type: functional
[17] = reduced cellular PGC1a acetyl-lysine signal – cell-based, cherry-picked samples, dose response (AID 720514); assay type: functional;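 also: potency may reflect raised or lowered acetylation signal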
INS1 = assay: INS-1E survival protection against cytokine death – cell-based, luminescence, retest, dose response (AID 449756); assay type: functional; conditions: Rattus norvegicus;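 also: cell death triggered by IL-1 beta plus TNF-alpha plus IFN-gamma mixture; protective hits raise ATP signal compared with cytokine alone wells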
[18] = Luminescence Cell-Based Dose Confirmation HTS to Identify Inhibitors of Platelet Dense Granule Release. [Related pubchem assays: 1663 (Primary HTS), 1678 (Summary of Project)]; assay type: functional
[19] = Fluorescence Cell-Based Dose Response to Identify Inhibitors of Thrombin Receptor-Activating Peptide SFLLRN-Mediated P-Selectin Induction on Platelets. [Related pubchem assays: 1663 (Primary HTS), 1889 (retest at dose ), 1891 (counterscreen), 1678 (Project Summary)]; assay type: functional
[20] = molecular target: Luciferin 4-monooxygenase (Photinus pyralis, UniProt P08659); assay: inhibition of purified Photinus pyralis luciferase – biochemical, luminescence, dose response (AID 1891)
[21] = molecular target: T3, Mannose-6-phosphate isomerase (Homo sapiens, UniProt P34949); assay: MPI inhibition at elevated mannose 6-phosphate – biochemical, fluorescence intensity, high mannose 6-phosphate, primary screen (AID 1220)
T3 sequence (P34949 whole entry): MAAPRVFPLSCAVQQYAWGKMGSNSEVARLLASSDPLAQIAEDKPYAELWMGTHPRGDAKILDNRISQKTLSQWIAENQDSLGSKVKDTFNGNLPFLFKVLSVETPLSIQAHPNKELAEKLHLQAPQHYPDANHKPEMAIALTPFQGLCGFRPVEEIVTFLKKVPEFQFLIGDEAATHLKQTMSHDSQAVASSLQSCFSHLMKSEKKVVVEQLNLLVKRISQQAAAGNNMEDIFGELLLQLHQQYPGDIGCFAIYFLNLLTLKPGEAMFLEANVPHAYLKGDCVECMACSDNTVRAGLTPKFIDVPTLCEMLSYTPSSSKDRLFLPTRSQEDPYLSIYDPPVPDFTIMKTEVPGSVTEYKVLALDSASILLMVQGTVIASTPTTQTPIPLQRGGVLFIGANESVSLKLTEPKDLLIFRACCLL

Heat shock protein HSP90 = Heat shock protein HSP90 (Homo sapiens, UniProt P07900+P08238); assay: Hsp90 blockade concentration-response – dose response (AID 712); assay type: functional
[22] = molecular target: T4, Replicative DNA helicase DnaB (Mycobacterium tuberculosis, UniProt P9WMR3); assay: DnaB intein splicing inhibitors, dose response, biochemical, cell-free fluorescence (AID 449749); assay type: functional
T4 sequence (P9WMR3 whole entry): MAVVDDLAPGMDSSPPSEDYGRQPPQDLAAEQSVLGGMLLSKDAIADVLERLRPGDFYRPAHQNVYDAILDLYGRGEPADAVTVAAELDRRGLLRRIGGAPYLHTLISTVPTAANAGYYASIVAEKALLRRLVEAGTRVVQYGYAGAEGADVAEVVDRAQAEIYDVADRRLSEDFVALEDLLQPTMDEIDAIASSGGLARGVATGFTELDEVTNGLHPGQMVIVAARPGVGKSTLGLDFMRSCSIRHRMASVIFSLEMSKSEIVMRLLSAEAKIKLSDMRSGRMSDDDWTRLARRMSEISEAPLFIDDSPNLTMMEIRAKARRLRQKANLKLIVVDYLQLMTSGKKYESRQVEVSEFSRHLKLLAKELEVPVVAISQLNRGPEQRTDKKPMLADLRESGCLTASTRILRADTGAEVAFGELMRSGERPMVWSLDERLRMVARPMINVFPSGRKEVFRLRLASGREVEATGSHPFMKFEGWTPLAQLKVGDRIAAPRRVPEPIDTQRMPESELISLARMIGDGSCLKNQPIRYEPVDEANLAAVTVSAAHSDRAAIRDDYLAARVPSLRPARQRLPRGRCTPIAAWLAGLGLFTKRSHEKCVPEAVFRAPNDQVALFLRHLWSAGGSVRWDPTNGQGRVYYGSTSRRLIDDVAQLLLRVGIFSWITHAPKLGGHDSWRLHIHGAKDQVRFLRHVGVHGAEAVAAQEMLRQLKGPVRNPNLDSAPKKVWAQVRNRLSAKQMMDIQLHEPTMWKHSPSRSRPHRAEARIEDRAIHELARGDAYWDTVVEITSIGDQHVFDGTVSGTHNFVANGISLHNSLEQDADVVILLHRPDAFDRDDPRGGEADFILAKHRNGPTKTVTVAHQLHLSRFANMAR

Protein RecA = molecular target: T5, Protein RecA (Mycobacterium tuberculosis, UniProt P9WHJ3); assay: Fluorescence Cell-Free Homogeneous Dose Retest to Identify Inhibitors of RecA-Intein Splicing Activity. [Related pubchem assays (depositor defined):AID2097, AID2223, AID489010, AID492950]; assay type: functional
T5 sequence (P9WHJ3 whole entry): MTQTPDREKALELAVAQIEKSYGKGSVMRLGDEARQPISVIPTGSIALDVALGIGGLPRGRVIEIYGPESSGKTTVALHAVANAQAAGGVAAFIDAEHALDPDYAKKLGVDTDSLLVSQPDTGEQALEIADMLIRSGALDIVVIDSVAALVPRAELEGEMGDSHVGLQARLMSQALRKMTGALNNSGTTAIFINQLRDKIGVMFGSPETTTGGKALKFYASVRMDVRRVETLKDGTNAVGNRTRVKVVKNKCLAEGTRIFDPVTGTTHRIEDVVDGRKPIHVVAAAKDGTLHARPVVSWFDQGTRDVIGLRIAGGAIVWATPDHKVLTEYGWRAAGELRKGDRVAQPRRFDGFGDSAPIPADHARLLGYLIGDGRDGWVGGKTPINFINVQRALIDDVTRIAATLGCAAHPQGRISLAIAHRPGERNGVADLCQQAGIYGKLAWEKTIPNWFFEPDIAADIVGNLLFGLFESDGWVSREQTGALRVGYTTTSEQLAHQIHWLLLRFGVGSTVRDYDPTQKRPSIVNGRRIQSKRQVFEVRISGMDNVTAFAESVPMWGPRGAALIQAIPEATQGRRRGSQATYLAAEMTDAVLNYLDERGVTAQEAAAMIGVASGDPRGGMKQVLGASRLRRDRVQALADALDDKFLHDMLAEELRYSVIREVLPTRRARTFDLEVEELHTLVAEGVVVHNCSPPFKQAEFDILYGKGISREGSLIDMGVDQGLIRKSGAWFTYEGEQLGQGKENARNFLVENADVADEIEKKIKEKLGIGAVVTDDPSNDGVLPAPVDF

[23] = molecular target: Voltage-gated inwardly rectifying potassium channel KCNH2 (Homo sapiens, UniProt Q12809); assay: concentration-dependent hERG rescue from blockers – cell-based, thallium flux, dose response (AID 2121); assay type: ADME
Sequence of Voltage-gated inwardly rectifying potassium channel KCNH2 (Q12809 whole entry): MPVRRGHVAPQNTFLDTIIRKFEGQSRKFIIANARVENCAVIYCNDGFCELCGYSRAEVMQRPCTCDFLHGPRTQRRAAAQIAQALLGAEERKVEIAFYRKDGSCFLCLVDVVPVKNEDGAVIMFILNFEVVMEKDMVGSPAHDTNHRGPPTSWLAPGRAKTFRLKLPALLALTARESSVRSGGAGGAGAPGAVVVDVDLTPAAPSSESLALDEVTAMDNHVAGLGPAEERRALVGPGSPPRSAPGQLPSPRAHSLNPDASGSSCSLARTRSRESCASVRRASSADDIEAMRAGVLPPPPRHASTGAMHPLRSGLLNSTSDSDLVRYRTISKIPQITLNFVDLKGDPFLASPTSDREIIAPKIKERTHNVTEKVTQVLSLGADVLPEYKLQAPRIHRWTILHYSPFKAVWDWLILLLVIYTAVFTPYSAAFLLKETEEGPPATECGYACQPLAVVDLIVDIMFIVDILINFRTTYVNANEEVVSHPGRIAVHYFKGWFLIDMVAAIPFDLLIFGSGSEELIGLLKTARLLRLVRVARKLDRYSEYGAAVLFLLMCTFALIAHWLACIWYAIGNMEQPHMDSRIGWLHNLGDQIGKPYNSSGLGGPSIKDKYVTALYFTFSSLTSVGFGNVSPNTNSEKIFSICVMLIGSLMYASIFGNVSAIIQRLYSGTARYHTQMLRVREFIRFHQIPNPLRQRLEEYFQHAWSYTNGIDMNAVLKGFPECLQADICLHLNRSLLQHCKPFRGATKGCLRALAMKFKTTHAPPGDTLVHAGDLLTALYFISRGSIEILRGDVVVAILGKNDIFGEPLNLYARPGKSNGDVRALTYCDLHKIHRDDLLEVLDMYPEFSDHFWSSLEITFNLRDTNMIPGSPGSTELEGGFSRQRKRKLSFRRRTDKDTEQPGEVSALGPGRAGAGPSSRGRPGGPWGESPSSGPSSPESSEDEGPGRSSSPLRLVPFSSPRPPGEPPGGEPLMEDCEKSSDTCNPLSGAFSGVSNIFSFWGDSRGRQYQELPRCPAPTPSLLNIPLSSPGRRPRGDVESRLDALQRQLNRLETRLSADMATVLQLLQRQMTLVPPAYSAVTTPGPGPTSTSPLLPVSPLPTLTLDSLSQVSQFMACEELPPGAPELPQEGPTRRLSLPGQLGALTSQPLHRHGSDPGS

Sequence of Photoreceptor-specific nuclear receptor (Q9Y5X4 whole entry): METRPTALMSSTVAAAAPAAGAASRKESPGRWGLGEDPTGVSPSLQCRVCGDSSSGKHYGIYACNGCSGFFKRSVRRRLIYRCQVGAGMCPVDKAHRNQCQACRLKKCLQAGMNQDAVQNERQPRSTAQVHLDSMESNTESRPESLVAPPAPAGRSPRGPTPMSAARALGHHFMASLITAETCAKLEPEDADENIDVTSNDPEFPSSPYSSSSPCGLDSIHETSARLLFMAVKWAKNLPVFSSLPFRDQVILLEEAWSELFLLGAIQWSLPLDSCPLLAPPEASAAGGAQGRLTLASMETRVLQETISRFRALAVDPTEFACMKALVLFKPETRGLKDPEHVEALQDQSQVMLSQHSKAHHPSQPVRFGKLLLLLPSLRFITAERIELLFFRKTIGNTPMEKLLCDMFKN
Sequence of Peroxisome proliferator-activated receptor gamma/Nuclear receptor corepressor 2 (P37231 whole entry): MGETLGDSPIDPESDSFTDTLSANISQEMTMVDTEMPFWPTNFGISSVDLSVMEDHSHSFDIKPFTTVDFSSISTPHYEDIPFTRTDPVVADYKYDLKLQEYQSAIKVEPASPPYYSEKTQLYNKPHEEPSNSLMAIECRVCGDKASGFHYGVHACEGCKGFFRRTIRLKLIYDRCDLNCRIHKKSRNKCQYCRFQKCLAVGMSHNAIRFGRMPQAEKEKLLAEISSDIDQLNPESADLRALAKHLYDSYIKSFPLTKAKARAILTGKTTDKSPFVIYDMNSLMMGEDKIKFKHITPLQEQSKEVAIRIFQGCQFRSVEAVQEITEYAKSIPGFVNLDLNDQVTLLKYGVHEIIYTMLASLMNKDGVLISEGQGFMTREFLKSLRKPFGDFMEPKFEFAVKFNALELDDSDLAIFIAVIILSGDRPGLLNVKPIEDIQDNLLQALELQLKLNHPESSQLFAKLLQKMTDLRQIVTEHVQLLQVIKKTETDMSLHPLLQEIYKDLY
Sequence of Peroxisome proliferator-activated receptor gamma/Nuclear receptor corepressor 2 (Q9Y618 whole entry): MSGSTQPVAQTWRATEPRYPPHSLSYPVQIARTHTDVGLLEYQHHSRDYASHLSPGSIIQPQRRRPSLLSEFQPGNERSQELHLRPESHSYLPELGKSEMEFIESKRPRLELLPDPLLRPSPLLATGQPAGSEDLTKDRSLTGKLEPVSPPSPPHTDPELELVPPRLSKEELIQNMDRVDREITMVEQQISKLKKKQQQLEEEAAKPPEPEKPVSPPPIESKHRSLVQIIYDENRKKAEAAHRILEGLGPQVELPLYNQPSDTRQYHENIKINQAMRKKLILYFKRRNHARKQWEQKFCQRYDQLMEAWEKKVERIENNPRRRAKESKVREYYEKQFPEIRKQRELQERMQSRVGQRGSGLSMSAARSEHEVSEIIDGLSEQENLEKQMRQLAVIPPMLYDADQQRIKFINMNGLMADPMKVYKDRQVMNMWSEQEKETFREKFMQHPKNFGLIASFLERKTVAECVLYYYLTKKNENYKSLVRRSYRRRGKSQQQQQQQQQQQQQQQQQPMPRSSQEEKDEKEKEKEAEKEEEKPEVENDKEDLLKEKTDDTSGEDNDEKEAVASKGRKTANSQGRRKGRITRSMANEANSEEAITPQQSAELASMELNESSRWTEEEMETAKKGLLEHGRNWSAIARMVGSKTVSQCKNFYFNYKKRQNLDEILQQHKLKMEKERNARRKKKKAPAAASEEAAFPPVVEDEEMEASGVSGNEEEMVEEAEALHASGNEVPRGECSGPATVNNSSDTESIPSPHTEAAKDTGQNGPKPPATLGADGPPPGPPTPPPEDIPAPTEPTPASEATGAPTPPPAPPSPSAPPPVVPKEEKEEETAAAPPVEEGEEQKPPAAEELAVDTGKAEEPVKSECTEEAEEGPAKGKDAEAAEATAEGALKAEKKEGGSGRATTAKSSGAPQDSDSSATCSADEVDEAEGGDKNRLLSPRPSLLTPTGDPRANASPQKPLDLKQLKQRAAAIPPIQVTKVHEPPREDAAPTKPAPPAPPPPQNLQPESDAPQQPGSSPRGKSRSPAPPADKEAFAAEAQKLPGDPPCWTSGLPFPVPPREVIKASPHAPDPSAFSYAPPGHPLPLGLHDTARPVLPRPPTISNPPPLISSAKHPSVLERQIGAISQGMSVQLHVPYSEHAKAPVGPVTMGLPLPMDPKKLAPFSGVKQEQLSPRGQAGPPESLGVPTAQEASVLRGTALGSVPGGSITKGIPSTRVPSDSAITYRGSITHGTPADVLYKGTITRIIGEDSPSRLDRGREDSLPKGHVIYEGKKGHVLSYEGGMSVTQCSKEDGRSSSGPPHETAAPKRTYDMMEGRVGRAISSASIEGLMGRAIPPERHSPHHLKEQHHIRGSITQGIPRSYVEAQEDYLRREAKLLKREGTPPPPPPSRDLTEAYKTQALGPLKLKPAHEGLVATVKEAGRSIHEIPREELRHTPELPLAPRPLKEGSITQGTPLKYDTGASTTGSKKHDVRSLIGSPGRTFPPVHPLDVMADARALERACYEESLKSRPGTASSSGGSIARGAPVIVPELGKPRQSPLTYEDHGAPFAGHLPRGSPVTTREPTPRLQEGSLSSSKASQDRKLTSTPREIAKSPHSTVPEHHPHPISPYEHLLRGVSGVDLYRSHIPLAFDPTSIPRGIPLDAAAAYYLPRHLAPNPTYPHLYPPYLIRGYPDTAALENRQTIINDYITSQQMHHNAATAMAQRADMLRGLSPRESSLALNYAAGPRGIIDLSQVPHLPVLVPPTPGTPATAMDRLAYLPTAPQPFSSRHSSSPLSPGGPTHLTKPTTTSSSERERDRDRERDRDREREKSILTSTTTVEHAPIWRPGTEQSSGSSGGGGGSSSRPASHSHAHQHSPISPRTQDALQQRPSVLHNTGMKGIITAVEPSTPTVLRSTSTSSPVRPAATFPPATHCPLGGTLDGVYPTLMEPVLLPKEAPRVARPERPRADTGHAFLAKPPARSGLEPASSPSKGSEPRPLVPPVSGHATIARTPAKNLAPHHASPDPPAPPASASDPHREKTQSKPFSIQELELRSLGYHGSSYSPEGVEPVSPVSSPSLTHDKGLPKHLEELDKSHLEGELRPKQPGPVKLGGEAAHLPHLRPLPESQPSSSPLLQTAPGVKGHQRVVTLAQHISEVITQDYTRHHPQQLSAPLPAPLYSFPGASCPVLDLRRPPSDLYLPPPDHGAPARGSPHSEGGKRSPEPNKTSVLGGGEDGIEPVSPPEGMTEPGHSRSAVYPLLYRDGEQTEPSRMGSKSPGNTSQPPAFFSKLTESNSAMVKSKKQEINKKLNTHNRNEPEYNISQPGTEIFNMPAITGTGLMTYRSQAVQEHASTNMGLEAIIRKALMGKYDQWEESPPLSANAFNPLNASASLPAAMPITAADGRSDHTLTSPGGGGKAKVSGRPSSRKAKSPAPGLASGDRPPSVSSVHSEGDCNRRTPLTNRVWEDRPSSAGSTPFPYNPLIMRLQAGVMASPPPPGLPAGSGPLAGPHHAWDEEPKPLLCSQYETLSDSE
Sequence of Sphingosine 1-phosphate receptor 1 (P21453 whole entry): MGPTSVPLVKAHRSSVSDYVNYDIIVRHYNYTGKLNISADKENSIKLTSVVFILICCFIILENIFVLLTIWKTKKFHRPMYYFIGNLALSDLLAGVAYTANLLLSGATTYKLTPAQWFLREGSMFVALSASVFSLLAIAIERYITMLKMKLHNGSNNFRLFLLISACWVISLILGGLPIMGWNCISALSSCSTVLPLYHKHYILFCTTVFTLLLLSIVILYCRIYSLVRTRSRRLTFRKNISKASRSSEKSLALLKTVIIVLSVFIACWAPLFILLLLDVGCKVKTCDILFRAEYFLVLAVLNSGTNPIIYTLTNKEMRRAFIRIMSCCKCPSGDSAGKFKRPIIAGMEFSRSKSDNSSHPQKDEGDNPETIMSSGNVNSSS

SMILES: CCN1CCN(c2ccc(S(=O)(=O)N3CCCCC3)cc2NC(=O)Cc2c(Cl)cccc2Cl)CC1
- EC50 [1]: 49.2 µM (active)
- EC50 (cells): 0.06 µM (active)
- IC50 (Vero): 27.1 µM (active)
- EC50 [2]: < 0.1 µM (active)

SMILES: Cc1ccc2[nH]c(CCN(C)C)c(CN3CCOCC3)c2c1
- IC50 [3]: 10.7 µM (not active)
- IC50 [4]: 6.09 µM (active)

SMILES: COc1ccc([N+](=O)[O-])c(S(=O)(=O)c2ccc(Cl)cc2)n1
- AC50 [5]: 7.08 µM (active)
- AC50 [6]: 10 µM (active)
- AC50 [7]: 2.64 µM (active)
- AC50 [8]: 3.78 µM (active)
- AC50 [9]: 0.753 µM (active)
- IC50 [10]: 1.15 µM (not active)
- IC50 [11]: 4.73 µM (active)
- IC50 [12]: 0.81 µM (active)
- AC50 [13]: 7.69 µM (active)
- IC50 [14]: 11 µM (active)
- CC50 [15]: 38.1 µM (active)
- IC50 [16]: 0.391 µM (active)
- AC50 [17]: 8.16 µM (active)
- AC50 (INS1): 6.17 µM (active)

SMILES: COc1ccccc1C(=O)Nc1cnc(O)nc1O
- EC50 [18]: 0.25 µM (active)
- EC50 [19]: < 0.3 µM (active)
- EC50 [20]: > 112 µM (not active)

SMILES: Oc1ccc(/C=N/c2ccc3ncccc3c2)c(O)c1
- IC50 [21]: > 50 µM (not active)
- IC50 (Heat shock protein HSP90): > 50 µM
- AC50 [22]: 11.5 µM (active)
- EC50 (Protein RecA): 29 µM (active)

SMILES: COC(=O)c1ccc(CSc2ncnc3sc(C)c(C)c23)o1
- EC50 [23]: 11.1 µM (active)
